Assay results: ChEMBL document CHEMBL5303762, “Data for DCP probe BI-8668” (2023)

Assays:
[1] = target: Prostaglandin G/H synthase 2 (Homo sapiens) (UniProt P35354); test: COX-2 Eurofins SafetyScreen44 (BI); conditions: Compound concentration 10.0 uM
[2] = target: 5-hydroxytryptamine receptor 1B (Homo sapiens) (UniProt P28222); test: 5HT1B(H) Eurofins SafetyScreen44 (BI); conditions: filed as antagonist, Compound concentration 10.0 uM
[3] = target: Beta-1 adrenergic receptor (Homo sapiens) (UniProt P08588); conditions: Compound concentration 10.0 uM
Histamine H3 receptor = Histamine H3 receptor (Homo sapiens, UniProt Q9Y5N1); test: GPCRScan assay: inhibition of H3; set-up: radioligand conc. used [nm] 0.5 – 1.0, parental cells HEK Flp-In
Sequence of Histamine H3 receptor (Q9Y5N1 whole entry): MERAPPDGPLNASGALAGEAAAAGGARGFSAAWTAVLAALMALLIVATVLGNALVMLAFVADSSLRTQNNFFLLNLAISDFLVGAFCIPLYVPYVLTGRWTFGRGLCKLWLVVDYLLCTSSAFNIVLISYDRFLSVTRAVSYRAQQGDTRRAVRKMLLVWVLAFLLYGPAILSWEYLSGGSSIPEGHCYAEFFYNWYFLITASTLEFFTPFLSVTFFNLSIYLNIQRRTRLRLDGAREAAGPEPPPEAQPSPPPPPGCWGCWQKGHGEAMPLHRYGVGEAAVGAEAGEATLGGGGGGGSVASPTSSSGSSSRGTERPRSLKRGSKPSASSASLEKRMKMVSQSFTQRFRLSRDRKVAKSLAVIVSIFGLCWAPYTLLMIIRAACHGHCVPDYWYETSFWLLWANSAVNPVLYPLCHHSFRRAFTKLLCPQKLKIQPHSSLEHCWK

[4] = target: Prostaglandin G/H synthase 2 (Homo sapiens) (UniProt P35354); test: COX2_HU Eurofins SafetyScreen44 (BI); conditions: Compound concentration 10.0 uM
[5] = target: Cannabinoid receptor 1 (Homo sapiens) (UniProt P21554); test: CB1/CENTR/H Eurofins SafetyScreen44 (BI); conditions: Compound concentration 10.0 uM
[6] = target: Alpha-2B adrenergic receptor (Homo sapiens) (UniProt P18089); conditions: Compound concentration 10.0 uM
Sequence of Alpha-2B adrenergic receptor (Homo sapiens) (P18089 whole entry): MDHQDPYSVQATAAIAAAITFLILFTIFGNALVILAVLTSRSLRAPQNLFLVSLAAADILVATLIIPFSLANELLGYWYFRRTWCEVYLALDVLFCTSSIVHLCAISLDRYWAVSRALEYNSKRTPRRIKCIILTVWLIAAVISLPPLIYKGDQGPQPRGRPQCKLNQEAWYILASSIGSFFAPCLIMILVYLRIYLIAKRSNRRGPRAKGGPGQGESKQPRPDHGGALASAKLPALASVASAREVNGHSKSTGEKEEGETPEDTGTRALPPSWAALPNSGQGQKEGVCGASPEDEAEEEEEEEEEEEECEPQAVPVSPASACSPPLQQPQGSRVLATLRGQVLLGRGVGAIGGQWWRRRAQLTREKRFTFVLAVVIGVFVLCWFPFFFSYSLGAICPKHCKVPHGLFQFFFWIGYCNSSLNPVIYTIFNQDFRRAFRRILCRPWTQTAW

[7] = target: Amiloride-sensitive sodium channel, ENaC (Mus musculus) (UniProt Q61180+Q9WU38+Q9WU39); test: Inhibition of M-1 water resorption; assay type: functional, cell-based; conditions: M1, concentration not given here
[8] = target: Muscarinic acetylcholine receptor M3 (Homo sapiens) (UniProt P20309); test: M3(H)ANTAG Eurofins SafetyScreen44 (BI); conditions: filed as antagonist, Compound concentration 10.0 uM
Sequence of Muscarinic acetylcholine receptor M3 (Homo sapiens) (P20309 whole entry, looked up): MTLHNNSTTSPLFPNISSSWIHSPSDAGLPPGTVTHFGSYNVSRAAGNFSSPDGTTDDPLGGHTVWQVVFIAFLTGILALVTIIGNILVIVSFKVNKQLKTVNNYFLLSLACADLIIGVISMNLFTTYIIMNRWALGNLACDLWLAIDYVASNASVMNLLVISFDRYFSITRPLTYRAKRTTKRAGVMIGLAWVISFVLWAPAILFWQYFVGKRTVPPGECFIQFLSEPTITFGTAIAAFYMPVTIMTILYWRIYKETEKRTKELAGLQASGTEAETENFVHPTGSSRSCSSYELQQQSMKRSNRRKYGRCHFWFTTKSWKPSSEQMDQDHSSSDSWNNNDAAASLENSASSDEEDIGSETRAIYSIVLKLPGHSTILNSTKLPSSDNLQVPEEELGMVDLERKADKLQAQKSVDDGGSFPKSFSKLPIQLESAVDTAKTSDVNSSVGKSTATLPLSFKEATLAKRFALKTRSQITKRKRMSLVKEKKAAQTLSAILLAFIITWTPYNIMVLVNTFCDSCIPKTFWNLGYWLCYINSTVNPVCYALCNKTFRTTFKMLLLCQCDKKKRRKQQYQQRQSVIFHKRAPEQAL

[9] = target: Muscarinic acetylcholine receptor M3 (Homo sapiens) (UniProt P20309); conditions: Compound concentration 10.0 uM
[10] = target: 5-hydroxytryptamine receptor 7 (Homo sapiens) (UniProt P34969); conditions: Compound concentration 10.0 uM
[11] = target: D(3) dopamine receptor (Homo sapiens) (UniProt P35462); conditions: Compound concentration 10.0 uM
Sequence of D(3) dopamine receptor (Homo sapiens) (P35462 whole entry): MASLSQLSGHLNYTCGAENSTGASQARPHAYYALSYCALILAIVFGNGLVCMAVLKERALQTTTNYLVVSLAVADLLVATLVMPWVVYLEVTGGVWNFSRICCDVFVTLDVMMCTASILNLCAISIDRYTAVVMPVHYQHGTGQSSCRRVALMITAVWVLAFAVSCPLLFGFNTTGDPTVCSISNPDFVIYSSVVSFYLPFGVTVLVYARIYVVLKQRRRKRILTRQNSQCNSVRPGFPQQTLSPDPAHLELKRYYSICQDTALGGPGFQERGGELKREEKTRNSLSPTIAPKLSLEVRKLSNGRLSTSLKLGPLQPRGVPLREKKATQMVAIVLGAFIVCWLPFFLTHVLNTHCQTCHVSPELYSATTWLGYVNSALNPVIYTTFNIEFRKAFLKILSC

D(1B) dopamine receptor = D(1B) dopamine receptor (Homo sapiens, UniProt P21918); test: GPCRScan assay: inhibition of D5; set-up: radioligand conc. used [nm] 2.0 – 3.0, parental cells HEKT
Sequence of D(1B) dopamine receptor (P21918 whole entry): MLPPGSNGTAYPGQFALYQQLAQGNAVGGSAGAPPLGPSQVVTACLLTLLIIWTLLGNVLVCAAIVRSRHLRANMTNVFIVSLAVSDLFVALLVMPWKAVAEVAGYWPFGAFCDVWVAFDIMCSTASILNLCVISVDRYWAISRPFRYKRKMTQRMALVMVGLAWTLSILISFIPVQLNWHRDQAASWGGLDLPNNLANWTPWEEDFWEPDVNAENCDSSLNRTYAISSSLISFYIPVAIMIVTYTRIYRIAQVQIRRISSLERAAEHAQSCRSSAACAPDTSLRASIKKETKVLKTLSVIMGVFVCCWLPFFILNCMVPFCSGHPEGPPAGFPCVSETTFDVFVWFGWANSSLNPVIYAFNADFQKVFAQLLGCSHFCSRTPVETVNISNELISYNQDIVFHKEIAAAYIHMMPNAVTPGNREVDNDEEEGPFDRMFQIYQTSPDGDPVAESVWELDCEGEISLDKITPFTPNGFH

[12] = target: Beta-2 adrenergic receptor (Homo sapiens) (UniProt P07550); conditions: Compound concentration 10.0 uM
Sequence of Beta-2 adrenergic receptor (Homo sapiens) (P07550 whole entry, looked up): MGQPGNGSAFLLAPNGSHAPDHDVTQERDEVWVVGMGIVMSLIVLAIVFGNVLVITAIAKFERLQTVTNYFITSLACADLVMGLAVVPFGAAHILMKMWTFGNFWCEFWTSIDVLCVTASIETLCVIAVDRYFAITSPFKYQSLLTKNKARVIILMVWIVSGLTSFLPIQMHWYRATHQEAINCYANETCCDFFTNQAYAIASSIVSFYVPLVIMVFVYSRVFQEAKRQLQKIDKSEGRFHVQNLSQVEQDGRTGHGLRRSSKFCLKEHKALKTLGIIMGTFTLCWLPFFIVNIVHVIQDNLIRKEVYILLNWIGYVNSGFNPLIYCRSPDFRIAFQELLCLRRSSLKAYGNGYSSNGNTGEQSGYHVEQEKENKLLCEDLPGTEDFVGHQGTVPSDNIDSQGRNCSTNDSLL

[13] = target: Muscarinic acetylcholine receptor M4 (Homo sapiens) (UniProt P08173); conditions: Compound concentration 10.0 uM
Sequence of Muscarinic acetylcholine receptor M4 (Homo sapiens) (P08173 whole entry): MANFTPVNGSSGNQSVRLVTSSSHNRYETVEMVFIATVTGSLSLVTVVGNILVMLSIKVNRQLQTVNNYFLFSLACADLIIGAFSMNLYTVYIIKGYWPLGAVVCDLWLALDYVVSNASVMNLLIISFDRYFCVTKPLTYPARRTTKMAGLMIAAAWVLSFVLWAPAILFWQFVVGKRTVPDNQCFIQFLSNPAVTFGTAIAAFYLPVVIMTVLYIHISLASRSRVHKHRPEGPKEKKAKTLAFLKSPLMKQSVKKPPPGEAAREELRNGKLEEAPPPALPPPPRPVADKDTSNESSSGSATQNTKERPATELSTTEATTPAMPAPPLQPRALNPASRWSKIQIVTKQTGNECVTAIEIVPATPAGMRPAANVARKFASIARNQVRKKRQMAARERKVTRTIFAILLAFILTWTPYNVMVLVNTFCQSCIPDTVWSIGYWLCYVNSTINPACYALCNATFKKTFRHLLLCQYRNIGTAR

[14] = target: 5-hydroxytryptamine receptor 2C (Homo sapiens) (UniProt P28335); conditions: Compound concentration 10.0 uM
Sequence of 5-hydroxytryptamine receptor 2C (Homo sapiens) (P28335 whole entry): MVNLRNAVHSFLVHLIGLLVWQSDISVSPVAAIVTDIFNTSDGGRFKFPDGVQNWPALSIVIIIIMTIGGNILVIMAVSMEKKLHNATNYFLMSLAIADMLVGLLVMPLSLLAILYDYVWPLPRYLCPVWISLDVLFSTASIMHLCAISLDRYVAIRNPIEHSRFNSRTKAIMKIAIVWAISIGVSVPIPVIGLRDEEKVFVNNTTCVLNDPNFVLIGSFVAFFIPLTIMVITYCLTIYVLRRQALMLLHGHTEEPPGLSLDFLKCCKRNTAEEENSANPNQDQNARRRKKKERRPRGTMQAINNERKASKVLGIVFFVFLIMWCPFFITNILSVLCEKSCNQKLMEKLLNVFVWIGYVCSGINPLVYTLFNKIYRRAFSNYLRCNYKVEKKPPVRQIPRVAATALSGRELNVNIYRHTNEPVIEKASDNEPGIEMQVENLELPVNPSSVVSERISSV

[15] = target: Delta-type opioid receptor (Homo sapiens) (UniProt P41143); conditions: Compound concentration 10.0 uM
Sequence of Delta-type opioid receptor (Homo sapiens) (P41143 whole entry): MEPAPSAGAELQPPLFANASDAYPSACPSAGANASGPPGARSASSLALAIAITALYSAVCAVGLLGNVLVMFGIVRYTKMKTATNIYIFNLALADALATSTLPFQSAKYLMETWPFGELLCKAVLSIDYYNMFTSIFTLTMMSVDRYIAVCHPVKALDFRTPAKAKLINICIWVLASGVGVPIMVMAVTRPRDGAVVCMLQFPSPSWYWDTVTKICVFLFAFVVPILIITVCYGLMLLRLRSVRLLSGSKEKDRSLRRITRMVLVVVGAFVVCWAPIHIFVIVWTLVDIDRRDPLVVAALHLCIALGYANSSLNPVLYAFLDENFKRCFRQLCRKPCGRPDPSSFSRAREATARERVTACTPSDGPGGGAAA

[16] = target: T1, Alpha-1A adrenergic receptor (Homo sapiens) (UniProt P35348); test: ALPHA1A(H)AGON Eurofins SafetyScreen44 (BI); conditions: filed as agonist, Compound concentration 10.0 uM
T1 sequence (whole entry): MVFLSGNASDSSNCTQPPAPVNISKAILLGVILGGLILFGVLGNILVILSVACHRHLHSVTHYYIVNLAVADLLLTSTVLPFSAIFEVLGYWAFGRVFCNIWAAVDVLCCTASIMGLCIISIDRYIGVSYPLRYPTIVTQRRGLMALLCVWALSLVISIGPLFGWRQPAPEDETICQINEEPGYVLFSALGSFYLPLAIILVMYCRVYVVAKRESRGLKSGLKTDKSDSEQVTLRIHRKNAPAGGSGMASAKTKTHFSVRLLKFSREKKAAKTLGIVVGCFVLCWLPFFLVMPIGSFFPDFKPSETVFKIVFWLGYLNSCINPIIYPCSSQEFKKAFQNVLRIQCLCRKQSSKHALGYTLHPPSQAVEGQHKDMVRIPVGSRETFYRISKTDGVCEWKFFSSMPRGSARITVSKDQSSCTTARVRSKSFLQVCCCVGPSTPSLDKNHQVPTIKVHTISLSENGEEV

[17] = target: Sigma non-opioid intracellular receptor 1 (Homo sapiens) (UniProt Q99720); conditions: Compound concentration 10.0 uM
Sequence of Sigma non-opioid intracellular receptor 1 (Homo sapiens) (Q99720 whole entry): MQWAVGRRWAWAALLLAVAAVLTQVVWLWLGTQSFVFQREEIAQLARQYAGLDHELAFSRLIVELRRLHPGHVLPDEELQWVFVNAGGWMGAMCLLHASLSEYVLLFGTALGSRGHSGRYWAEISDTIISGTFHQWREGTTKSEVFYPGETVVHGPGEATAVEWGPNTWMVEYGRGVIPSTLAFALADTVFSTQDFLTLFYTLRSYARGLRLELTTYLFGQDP

Sequence of Prostaglandin G/H synthase 2 (Homo sapiens) (P35354 whole entry): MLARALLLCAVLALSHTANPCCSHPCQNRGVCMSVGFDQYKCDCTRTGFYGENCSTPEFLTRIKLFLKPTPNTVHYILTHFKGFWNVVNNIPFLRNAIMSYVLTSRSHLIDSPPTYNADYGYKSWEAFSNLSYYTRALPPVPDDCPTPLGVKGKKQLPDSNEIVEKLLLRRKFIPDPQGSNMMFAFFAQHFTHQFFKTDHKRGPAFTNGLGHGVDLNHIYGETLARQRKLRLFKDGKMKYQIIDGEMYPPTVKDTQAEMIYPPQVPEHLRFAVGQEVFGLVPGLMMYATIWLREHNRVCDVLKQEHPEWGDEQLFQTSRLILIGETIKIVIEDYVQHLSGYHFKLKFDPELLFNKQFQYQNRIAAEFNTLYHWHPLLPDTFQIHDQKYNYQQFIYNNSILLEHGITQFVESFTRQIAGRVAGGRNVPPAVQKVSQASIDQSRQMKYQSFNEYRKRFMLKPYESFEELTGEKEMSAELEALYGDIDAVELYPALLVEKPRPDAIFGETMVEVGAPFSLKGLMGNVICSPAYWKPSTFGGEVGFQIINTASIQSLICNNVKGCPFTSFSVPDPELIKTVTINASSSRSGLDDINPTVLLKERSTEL

CCn1c(CNC(=O)c2ncc(C)nc2N)[n+](CC)c2ccc(C(=O)N(C)CN(C)C)cc21
residual activity [1]: 82% | residual activity [2]: 94%

CCn1c(CNC(=O)c2nc(Cl)cnc2N)[n+](CC)c2ccc(C(=O)N(C)CCN(C)C)cc21
inhibition [3]: 4.25% | Ki (Histamine H3 receptor; read-out: Ki): 257 nM | Ki (Histamine H3 receptor; read-out: pKi (converted)): 219 nM | residual activity [4]: 85% | residual activity [5]: 99% | inhibition [6]: 0.45% | inhibition [7]: 81% | residual activity [8]: 96% | inhibition [9]: 23.3% | inhibition [10]: 4.76% | inhibition [11]: 8.95% | Ki (D(1B) dopamine receptor; read-out: Ki): 4.07 µM | Ki (D(1B) dopamine receptor; read-out: pKi (converted)): 4.07 µM | inhibition [12]: -5.7% | inhibition [13]: 7.09% | inhibition [14]: 1.01% | inhibition [15]: 3.99% | residual activity [16]: 99.6% | inhibition [17]: 20%
